This note sets out measurements from PubChem BioAssay (NCI).

Holding throughout (experiment): NCI anticancer screen, dose series, 48 h
Assay [1] concerns MOLT-4 leukemia.
Assay [2] relates to OVCAR-8 ovarian.
The test system of assay [3] is MDA-MB-231 breast.
The test system of assay [4] is U251 CNS.
Assay [5] relates to A498 renal.
Assay [6] concerns SK-MEL-5 melanoma.
Assay [7] relates to RPMI-8226 leukemia.
For assay [8], the system named is HOP-62 NSCLC.
For assay [9], the system named is MDA-N.
The subject of assay [10] is NCI-H226 lung.
Assay [11] concerns ACHN renal.
The subject of assay [12] is SR leukemia.
The test system of assay [13] is HCC-2998 colon.
Assay [14] deals with DU-145 prostate.
The test system of assay [15] is SN12C renal.
Assay [16] relates to MALME-3M melanoma.
Assay [17] relates to HS 578T breast.
The test system of assay [18] is HCT-15 colon.
For assay [19], the system named is A549 NSCLC.

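48-hour exposure; five concentrations; linearly interpolated endpoints. GI50: concentration for 50% inhibition of growth. The concentration for full growth arrest is given as TGI.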

As for `CC(=O)NC1C(O)C(O)C(CO)OC1n1nc(SCc2ccccc2)c(=O)[nH]c1=O` (stereo not given), the TGI in [1], in assay [2], in [3], in assay [4], in assay [5] and in assay [6] was greater than 100 µM throughout. In addition, the TGI in [7], in [8], in [9], in assay [10], in assay [11] and in assay [12] was greater than 100 µM throughout. Moreover, the TGI in [13], in [14], in assay [15], in assay [16], in [17] and in assay [18] was greater than 100 µM throughout. In assay [19], this molecule showed a TGI greater than 100 µM.

For the molecule `CC(=O)OC(=C(C#N)C#N)c1nccnc1C(=O)O`, the TGI in [1], in [2], in assay [3], in [4], in assay [5] and in assay [6] was greater than 100 µM throughout. Besides, the TGI in assay [7], in [9], in [10], in assay [11], in assay [12] and in assay [13] was greater than 100 µM throughout. In addition, the TGI in assay [14], in assay [15], in assay [16], in [17], in assay [18] and in assay [19] was greater than 100 µM each time.

As to `Cc1cc2nn(C3CCCCO3)nc2cc1C` (stereo not given), the TGI in assay [1], in assay [2], in assay [3], in [4], in assay [5] and in assay [6] was greater than 100 µM in each case. The TGI in assay [8], in assay [9], in [10], in assay [11], in [12] and in [13] was greater than 100 µM in each case. The TGI in assay [14], in assay [15], in assay [16], in [17], in assay [18] and in assay [19] was greater than 100 µM in each case.

Regarding `O=C(CC(C(=O)c1cccs1)c1ccsc1)c1ccc(Cl)cc1` (stereo not given), the TGI in assay [1], in [2], in [3], in [4], in assay [5] and in [6] was greater than 100 µM throughout. The TGI in assay [7], in assay [8], in assay [9], in assay [10], in [11] and in assay [12] was greater than 100 µM each time. Moreover, the TGI in [13], in [14], in [15], in [16], in assay [17] and in assay [18] was greater than 100 µM in each case. In [19], this molecule registered a TGI greater than 100 µM.

Turning to `OC1C2CCC3C2CC(C(O)(c2ccccc2)c2ccccc2)C13` (stereo not given), the TGI was 74 µM in assay [1]; greater than 100 µM in assay [2]; greater than 100 µM in assay [3]; greater than 100 µM in assay [4]; greater than 100 µM in assay [5]; greater than 100 µM in assay [6]. Also, the TGI was greater than 100 µM in assay [8]; greater than 100 µM in [9]; 92.6 µM in [10]; greater than 100 µM in assay [11]; 69.7 µM in assay [12]; greater than 100 µM in assay [13]. Also, the TGI in [14] is greater than 100 µM; in assay [15] it was 47 µM; in assay [16] it was 71.3 µM; in [17], greater than 100 µM; in assay [18], greater than 100 µM; in assay [19], greater than 100 µM.

On to `Cc1cc(C)c(-n2c(C)c(C)c(C#N)c2N)c(C)c1`, for which the TGI in [1] is 68.5 µM; in assay [2], greater than 100 µM; in assay [3] it was greater than 100 µM; in [4], 49.7 µM; in [5], 97.1 µM; in [6] it was 37.2 µM. The TGI is 54.6 µM in assay [7]; greater than 100 µM in [8]; greater than 100 µM in [9]; greater than 100 µM in [10]; 78.9 µM in [11]; 38.4 µM in [12]. For the same molecule, the TGI in assay [14] is greater than 100 µM; in assay [15] it was greater than 100 µM; in [16] it was 87.8 µM; in [17], greater than 100 µM; in assay [18], greater than 100 µM; in assay [19], greater than 100 µM.

As to `O=C1CC(C(O)C(O)C(O)CO)CC(=O)N1` (stereo not given), the TGI in [1], in assay [2], in assay [3], in assay [4], in [5] and in assay [6] was greater than 100 µM throughout. In addition, the TGI in [7], in assay [8], in assay [9], in assay [10], in assay [11] and in assay [12] was greater than 100 µM throughout. The TGI in [13], in assay [14], in assay [15], in [16], in [17] and in assay [18] was greater than 100 µM each time. This molecule also came in with a TGI in [19] greater than 100 µM. The GI50 in assay [14] was greater than 100 µM.
